Measurements reported in ChEMBL document CHEMBL5046290, “Design, Synthesis, and Preclinical Profiling of GSK3739936 (BMS-986180), an Allosteric Inhibitor of HIV-1 Integrase with Broad-Spectrum Activity toward 124/125 Polymorphs” (J Med Chem, 2022).

Columns and labels:
[1] = Cmax in CD-1 mouse at 5 mg/kg, po by LC-MS/MS analysis; type: ADME, organism-based; parameters: route oral, dose 5 mg/kg; conditions: in vivo
[2] = tested on: Human immunodeficiency virus 1; assay: Antiviral activity against recombinant HIV1 NLRep-Rluc harbouring polymorphic AA infected in human MT-2 cells assessed as inhibition of virus growth in presence of fetal bovine serum by measuring luciferase activity after 5 days; type: functional, organism-based; conditions: Human immunodeficiency virus 1, NLRep, MT2, 120 h
[3] = Oral bioavailability in CD-1 mouse at 5 mg/kg by LC-MS/MS analysis; type: ADME, organism-based; conditions: in vivo
[4] = tested on: CYP; assay: Half life in rat assessed as CYP mediated metabolism in presence of […] by phase I metabolic oxidation assay; type: ADME
[5] = Cmax in cynomolgus monkey at 2 mg/kg, po by LC-MS/MS analysis; type: ADME, organism-based, Macaca fascicularis; parameters: route oral, dose 2 mg/kg; conditions: in vivo
[6] = Elimination half life in Beagle dog at 1 mg/kg, iv by LC-MS/MS analysis; type: ADME, organism-based, Canis lupus familiaris; conditions: in vivo, read-out: beta t1/2 (converted)

Which Cmax [1] does the source give for Cc1nc(C)c([C@H](OC(C)(C)C)C(=O)O)c(N2CCC(C)(C)CC2)c1-c1ccc(OCCc2ccc(F)cc2)cc1 here?
The Cmax was 2360 nM.

What about the EC50 [2] of the same molecule?
Its EC50 is 3.2 nM.

And the bioavailability [3]?
Its bioavailability is 89%.

And the half-life [4]?
The half-life was > 2 h.

What about the Cmax [5] of the same molecule?
Its Cmax is 525 nM.

And the half-life [6]?
Its half-life is 5.1 h.
